Experimental data: patent publication US20250059139A1, “COMPOUNDS FOR TREATMENT OF CANCER” (THE JOHNS HOPKINS UNIVERSITY, priority 2021, published 2025)

What was measured:
LNCaP cells = test: In vitro growth of LNCaP cells; type: cell-based, human; details: for LNCaP growth when combined with 3 nM docetaxel: 10 μM compound + 3 nM docetaxel
Excerpt: Prostate Cancer Models. The source, history, and characteristics of the human prostate cancer cell lines and PDXs used, as well as cell culture conditions for their in vitro maintenance and the in vivo protocol for xenograft growth in triple immune-deficient NSG (i.e. NOD.Cg-PrkdcScidIl2rgtmlWji/Szj), adult (>8 week old) male mice obtained from the Sidney Kimmel Comprehensive Cancer Center (SKCCC) Animal Core Facility are described previously (Isaacs 2013; Brennen et al. JCI Insight. 2021, 6(8):e146827; Zhu et al. Oncogene 2020, 39(45): 6935-6949). Similar information concerning the TRAMP-C2 and B6CaP mouse prostate cancers originating in a C57BL/6J male mice are described previously (Foster et al. Cancer Res. 1997, 57: 3325-3330; Simons et al. Oncotarget. 2019, 10(64):6845-6854). In vitro growth curves were determined as described (Isaacs 2013). In vivo growth response to oral daily TasQ (10 mg/kg/d) of TRAMP-C2 mouse prostate cancers was evaluated in C57BL/6J syngeneic wild type vs. NOX-2 vs. iNOS null male mice obtained from Jackson Laboratory (Bar Harbor, ME). Growth response to oral daily TasQ (10 mg/kg/d) of TRAMP-C2 and B6CaP mouse prostate cancers was also evaluated in S100A9 null C57BL′6J male mice obtained from Dmitry Gabrilovich (Wistar Institute). All lines were mycoplasma negative using the MycoSensor PCR Assay kit (Agilent Technologies) and genetically authenticated within the last 6 months using short tandem repeat profiling conducted by the Johns Hopkins Genetic Resource Core Facility. In vitro growth curves were determined as described (Isaacs 2013). Growth response to daily oral TasQ vs. ESATA-20 (both at 10 mg/kg/d) of Myc-CaP-CR mouse prostate cancer was evaluated in syngeneic FVB/NJ castrate male mice from Jackson Laboratory. Animal studies were conducted according to animal protocols approved by Johns Hopkins Animal Care and Use Committee. Tumor volume measurements were as described previously (id.). In vivo experiments were repeated multiple independent times for each model used with 3-5 mice per treatment grouping.
Similarly, under such optimal conditions, knocking down HDAC4 expression by 50% with shRNA only decreases the growth of LNCaP cells by <25%, which is equivalent to the inhibition by TasQ at 10 μM (FIG. 22). […] In contrast to normoxic in vitro conditions, cancers outgrow their blood supply in vivo, producing a TME that is hypoxic, nutrient-limited, and acidic (low pH). For example, when prostate cancer xenografts growing subcutaneously reach a size of ˜0.2-0.3 cc, the TME is already hypoxic with a pO2 of 3.6+/−1.5 mmHg compared to 37.5+/−8.6 mmHg in normal tissue (Dalrymple et al. Prostate 72, 638-648 (2012)). […]

[1] = target: T1, nuclear MEF2/HDAC4/NCoR1 formation in CWR-22Rv1 cells (Homo sapiens, UniProt P56524); test: Nuclear NCoR1 immunoprecipitated with MEF-2 antibody in CWR-22Rv1 cells under hypoxia; type: cell-based; details: 1% O2, read-out: IC50 for inhibiting hypoxia-induced nuclear MEF2/HDAC4/NCoR1 formation (MEF-2 and NCoR1 IP)
T1 construct: endogenous in cells; host or cells: CWR-22Rv1 cells, nuclear extracts, 1% O2
T1 sequence (P56524 whole entry): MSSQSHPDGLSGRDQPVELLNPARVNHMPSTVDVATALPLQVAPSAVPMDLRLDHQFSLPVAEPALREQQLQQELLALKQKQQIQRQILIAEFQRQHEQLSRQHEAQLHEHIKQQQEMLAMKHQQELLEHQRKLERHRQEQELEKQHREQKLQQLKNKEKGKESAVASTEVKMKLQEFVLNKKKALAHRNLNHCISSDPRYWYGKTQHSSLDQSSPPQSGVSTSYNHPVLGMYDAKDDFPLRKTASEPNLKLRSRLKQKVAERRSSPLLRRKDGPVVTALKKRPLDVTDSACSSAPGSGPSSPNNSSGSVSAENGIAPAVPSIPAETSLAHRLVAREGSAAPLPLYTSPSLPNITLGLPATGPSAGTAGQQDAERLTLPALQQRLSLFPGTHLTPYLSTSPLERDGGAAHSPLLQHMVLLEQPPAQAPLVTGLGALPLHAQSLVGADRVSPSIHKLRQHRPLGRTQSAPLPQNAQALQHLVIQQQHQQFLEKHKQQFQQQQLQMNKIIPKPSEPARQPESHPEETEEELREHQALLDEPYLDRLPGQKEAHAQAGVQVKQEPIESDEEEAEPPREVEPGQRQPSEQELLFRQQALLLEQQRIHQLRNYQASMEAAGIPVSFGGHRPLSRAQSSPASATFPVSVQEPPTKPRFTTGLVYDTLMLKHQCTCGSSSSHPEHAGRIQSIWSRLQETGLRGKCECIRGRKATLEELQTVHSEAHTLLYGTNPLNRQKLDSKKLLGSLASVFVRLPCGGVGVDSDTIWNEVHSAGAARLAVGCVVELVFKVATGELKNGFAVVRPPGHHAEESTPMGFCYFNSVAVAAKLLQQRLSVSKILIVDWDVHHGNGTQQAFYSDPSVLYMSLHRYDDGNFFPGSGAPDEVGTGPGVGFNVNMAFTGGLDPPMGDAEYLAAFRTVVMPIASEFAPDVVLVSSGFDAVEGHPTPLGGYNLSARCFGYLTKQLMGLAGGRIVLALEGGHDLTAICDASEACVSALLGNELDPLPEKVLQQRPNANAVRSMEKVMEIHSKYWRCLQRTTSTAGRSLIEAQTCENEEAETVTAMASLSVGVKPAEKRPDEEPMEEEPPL
Excerpt: While HIF-1α is required for the upregulation of hypoxia survival genes, it is not required for the hypoxia-induced widespread transcriptional repression, which is also needed for enhanced survival in the compromised TME (Denko et al. Nat Rev Cancer 8, 705-713 (2008)). MEF-2 is also a HDAC4 client (McKinsey et al. Trends Biochem Sci 27, 40-47 (2002)). MEF-2 dimers bind to target gene promoters, forming a hydrophobic groove composed of AA 1-78 of each monomer to which HDAC4 binds via its amphipathic helix at AA 168-184 (Han et al. J Mol Biol 345, 91-102 (2005)). When MEF-2 binds, HDAC4 forms a NCoR1/HDAC3 complex, which deacetylates MEF2 and histones within its proximity; thereby, repressing expression of its target genes (McKinsey 2002). When CWR-22Rv1 cells are switched from a 21% to a 1% 02 environment in vitro, there is a 3-fold increase in NCoR1 immunoprecipitated with MEF-2 from nuclear extracts (FIG. 36). Co-treatment with TasQ inhibits this hypoxia-induced increase in nuclear MEF2/HDAC4/NCoR1 formation with an IC50 of 5 μM (FIG. 36). These in vitro results are consistent with gene expression analysis of CWR22-RH PDX tissue from castrate hosts in vivo, which document that daily oral TasQ (10 mg/kg/d) inhibits the binding of NCoR1, and thus HDAC3 to the MEF-2/HDAC4 complex, relieving repression of MEF-2 target genes needed for survival under hypoxic conditions (Table 1B).

Structure (SMILES) | LNCaP growth when combined with 3 nM docetaxel (LNCaP cells) | IC50 (LNCaP cells; Homo sapiens, LNCaP line) [µM] | IC50 [1] [µM] | inhibition at 10 µM (LNCaP cells; Homo sapiens, LNCaP, 10 μM, normoxic) [%]
COc1cccc2c1c(O)c(C(=O)N(c1ccc(C(F)(F)F)cc1)C1CCCCC1)c(=O)n2C [ESATA-20] | completely inhibited | > 10 | < 1 | 
COc1cccc2c1c(O)c(C(=O)N(C)c1ccc(C(F)(F)F)cc1)c(=O)n2C [TasQ, Tasquinimod] | does not occur |  | 5 | < 25
